From publication PMC9322052, “Synthesis and Biological Activity Screening of Newly Synthesized Trimethoxyphenyl-Based Analogues as Potential Anticancer Agents” (Molecules, 2022)

Key:
Assay type in all cases: cell-based, human
HepG2 cells [1] = assay: Annexin V-FITC/PI dual staining apoptosis assay
Protocol: The extent of apoptosis induced by compound 9 in HepG2 cells was quantified by the FACS analysis. Cells were harvested after 48 h and analyzed for apoptosis percentage by flow cytometry.
[…] analysis in HepG2 cells was carried out by FACS analysis according to the manufacturer’s directions. See Section 3.3.4 in Supplementary Material.
Figure 4 Compound 9 induces apoptosis in HepG2 cells. (A) HepG2 cells were treated with 1.38 μM of compound 9 for 48 h. Cell apoptosis was quantized by Annexin V-FITC/PI dual staining assay using image-based cytometry. (B) The quantification of HepG2 cell apoptosis.
(§1) 3.3.1. Cytotoxic activity evaluation
(§2) To measure the cytotoxic activity of the synthesized derivatives 2a-11 in hepatocel-lular carcinoma (HepG2) cell line (ATCC Cat No. HB-8065) as well as normal human liver cell line HL-7702 (ATCC Cat. No. 77402), cell viability assay was assessed using MTT assay method. Cells at density of 1 x 104 were seeded in a 96-well plate at 37 °C for 24 h under 5% CO2. […] The color inten-sity of the formazan product, which represents the growth condition of the cells, is quan-tified by using an ELISA plate reader (EXL 800, USA) at 570 nm absorbance. […]
(§3) Compounds 9, 10 and 11 were evaluated for their tubulin inhibitory activity levels according to the manufacturer’s instructions using # abcam Human Beta-tubulin simplestep […]
Cell cycle analysis in HepG2 cells was investigated using fluorescent Annexin V-FITC/ PI detection kit (BioVision EZCellTM Cell Cycle Analysis Kit Catalog #K920) by flow cytometry assay. […] The samples were immediately analyzed using Facs Calibur flow cytometer (Becton and Dickinson, Heidelberg, Germany). […]
Apoptosis in HepG2 cells was investigated using fluorescent Annexin V-FITC/ PI de-tection kit (BioVision Annexin V-FITC Apoptosis Detection Kit, Catalog #: K101) by flow cy-tometry assay. […] The samples were immediately analyzed using FACS Calibur flow cytometer (Becton and Dickinson, Heidelberg, Germany).
3.3.5. […] The samples were immediately analyzed using cell […]

HepG2 cells [2] = assay: Mitochondrial membrane potential by flow cytometry; settings: HepG2, 1.38 μM (IC50), 48 h
Protocol: Mitochondrial Membrane Potential (MMP) plays a vital role in the initiation of the apoptosis process. Loss of MMP is characteristic of an early stage of apoptosis.
MMP was measured by flow cytometry analysis in HepG2 cells according to the manufacturer’s directions. See Section 3.3.5 in Supplementary Material.
Figure 5 Compound 9 promotes MMP dissipation in HepG2 cells. (A) HepG2 cells were treated with 1.38 μM of compound 9 for 48 h. MMP was quantized using image-based flow cytometry. (B) The quantification of MMP in HepG2 cells after treatment with compound 9 at its IC50 concentration (μM). […]
as §2, with “method.” for “method. Cells at density of 1 x 104 were seeded in a 96-well plate at 37 °C for 24 h under 5% CO2.”
as §3

Bax = assay: ELISA quantification of Bax level; settings: HepG2, 1.38 μM (IC50), 48 h
Protocol: Compound 9 was screened for its ability to activate p53 and Bax as well as downregulate the level of Bcl-2 to investigate the mechanistic apoptotic pathway that catalyzed the apoptosis process. HepG2 cells were treated with compound 9 at a concentration equal to its IC50 in μM, and the level of p53, Bax, and Bcl-2 was quantized using ELISA analysis. The results obtained for compound 9 show the increase in the level of p53 and Bax by 8.91- and 4.50-fold, respectively, compared with the negative control samples.
Apoptotic markers (p53, Bax and Bcl-2) were measured in HepG2 cells using ELISA analysis according to the manufacturer’s directions. See Section 3.3.6 in Supplementary Material.
Figure 6 (A) The quantification of p53. (B) The quantification of Bax. (C) The quantification of Bcl-2. HepG2 cells were treated with 1.38 μM of compound 9 for 48 h and apoptotic markers were determined by ELISA assay.
as §1
as §2, with “method.” for “method. Cells at density of 1 x 104 were seeded in a 96-well plate at 37 °C for 24 h under 5% CO2.”

[3] = HepG2, IC50 concentration, 48 h

COc1ccc(C2=N/C(=C\c3cc(OC)c(OC)c(OC)c3)C(=O)NN2c2ccccc2)cc1OC [Compound 9, (Z)-3-(3,4-Dimethoxyphenyl)-2-Phenyl-5-(3,4,5-Trimethoxybenzylidene)-1,2-Dihydro-1,2,4-Triazin-6(5H)-one]
increase in Annexin-V-positive cells compared with untreated control (HepG2 cells [1]; HepG2): ~18 fold
increase in percentage of early apoptosis compared with untreated control (HepG2 cells [1]; [3]): 16.63 fold
increase in percentage of late apoptosis compared with untreated control (HepG2 cells [1]; [3]): 60.11 fold
decrease in level of MMP compared with negative HepG2 cells (HepG2 cells [2]): 3.12 fold
increase in level of Bax compared with negative control (Bax): 4.50 fold
